Data taken from ChEMBL document CHEMBL1201862, “PubChem BioAssay data set” (2004).
Activity calls are given as the source filed them.

Tests used:
[1] = molecular target: DNA dC->dU-editing enzyme APOBEC-3G (Homo sapiens, UniProt Q9HC16); test: APOBEC3G deaminase inhibitors, SAR follow-up, biochemical, fluorescence, single-stranded DNA substrate (AID 602136); format: functional; conditions: read-out: IC50_Mean
[2] = molecular target: DNA dC->dU-editing enzyme APOBEC-3A (Homo sapiens, UniProt P31941); test: SAR analysis of small molecule inhibitors of APOBEC3A DNA Deaminase via a fluorescence-based single-stranded DNA deaminase assay.; format: functional; conditions: read-out: IC50_Mean
DNA dC->dU-editing enzyme APOBEC-3A, sequence (P31941 whole entry): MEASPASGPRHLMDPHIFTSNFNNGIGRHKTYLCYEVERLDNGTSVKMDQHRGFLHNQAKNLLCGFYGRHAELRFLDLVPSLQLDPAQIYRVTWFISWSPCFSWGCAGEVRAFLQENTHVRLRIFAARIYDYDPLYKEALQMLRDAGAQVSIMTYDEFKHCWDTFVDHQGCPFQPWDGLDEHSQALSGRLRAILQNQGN

[3] = molecular target: Dual specificity tyrosine-phosphorylation-regulated kinase 1A (Rattus norvegicus, UniProt Q63470); format: biochemical, Homo sapiens
[4] = molecular target: E3 ubiquitin-protein ligase Mdm2 (Homo sapiens, UniProt Q00987); test: enhancers of MDM2-luciferase reporter signal, concentration-effect titration, project on inhibitors of MDM2 ubiquitin ligase, cellular assay, luminescent readout, 384-well plate format (AID 1394); format: functional;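 also: MDM2 E3 inhibitors raise luminescence so EC50 is for signal enhancement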
E3 ubiquitin-protein ligase Mdm2, sequence (Q00987 whole entry): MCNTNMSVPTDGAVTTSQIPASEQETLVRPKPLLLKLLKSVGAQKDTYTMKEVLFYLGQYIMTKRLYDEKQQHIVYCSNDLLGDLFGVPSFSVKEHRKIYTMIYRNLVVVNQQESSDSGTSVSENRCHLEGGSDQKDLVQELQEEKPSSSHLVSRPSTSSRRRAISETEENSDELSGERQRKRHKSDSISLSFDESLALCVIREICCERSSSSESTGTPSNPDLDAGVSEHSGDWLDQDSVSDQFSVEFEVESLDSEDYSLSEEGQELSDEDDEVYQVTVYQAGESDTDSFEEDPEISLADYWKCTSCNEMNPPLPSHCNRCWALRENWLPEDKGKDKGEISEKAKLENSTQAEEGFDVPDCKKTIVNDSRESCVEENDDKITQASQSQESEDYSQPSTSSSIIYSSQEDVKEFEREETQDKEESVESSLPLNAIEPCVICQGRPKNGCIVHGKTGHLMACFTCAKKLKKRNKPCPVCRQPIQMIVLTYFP

[5] = molecular target: T1, Microphthalmia-associated transcription factor (Homo sapiens, UniProt O75030); test: TRPM1 promoter luciferase signal decrease, dose response, MITF inhibitor project, cell-based, SK-MEL-5, cherry-picked, set 3 (AID 493073); format: functional
T1 sequence (O75030 whole entry): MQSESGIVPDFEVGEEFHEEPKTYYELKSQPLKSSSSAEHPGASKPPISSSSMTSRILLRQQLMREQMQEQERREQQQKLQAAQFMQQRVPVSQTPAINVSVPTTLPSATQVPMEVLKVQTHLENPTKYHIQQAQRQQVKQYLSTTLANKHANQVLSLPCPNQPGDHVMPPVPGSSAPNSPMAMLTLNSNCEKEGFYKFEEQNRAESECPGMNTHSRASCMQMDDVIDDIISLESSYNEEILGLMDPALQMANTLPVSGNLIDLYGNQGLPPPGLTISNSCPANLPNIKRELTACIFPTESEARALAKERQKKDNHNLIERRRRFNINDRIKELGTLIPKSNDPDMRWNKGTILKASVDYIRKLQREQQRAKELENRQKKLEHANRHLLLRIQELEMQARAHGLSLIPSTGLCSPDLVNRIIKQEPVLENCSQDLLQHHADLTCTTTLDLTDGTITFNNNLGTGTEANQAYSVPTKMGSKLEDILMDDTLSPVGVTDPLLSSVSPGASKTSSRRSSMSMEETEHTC

[6] = molecular target: Glucose-6-phosphate 1-dehydrogenase (Homo sapiens, UniProt P11413); test: human G6PD enzyme inhibitors, dose response, selectivity assay for P. falciparum G6PD inhibitor project, biochemical, fluorescence (AID 504792); format: functional
Glucose-6-phosphate 1-dehydrogenase, sequence (P11413 whole entry): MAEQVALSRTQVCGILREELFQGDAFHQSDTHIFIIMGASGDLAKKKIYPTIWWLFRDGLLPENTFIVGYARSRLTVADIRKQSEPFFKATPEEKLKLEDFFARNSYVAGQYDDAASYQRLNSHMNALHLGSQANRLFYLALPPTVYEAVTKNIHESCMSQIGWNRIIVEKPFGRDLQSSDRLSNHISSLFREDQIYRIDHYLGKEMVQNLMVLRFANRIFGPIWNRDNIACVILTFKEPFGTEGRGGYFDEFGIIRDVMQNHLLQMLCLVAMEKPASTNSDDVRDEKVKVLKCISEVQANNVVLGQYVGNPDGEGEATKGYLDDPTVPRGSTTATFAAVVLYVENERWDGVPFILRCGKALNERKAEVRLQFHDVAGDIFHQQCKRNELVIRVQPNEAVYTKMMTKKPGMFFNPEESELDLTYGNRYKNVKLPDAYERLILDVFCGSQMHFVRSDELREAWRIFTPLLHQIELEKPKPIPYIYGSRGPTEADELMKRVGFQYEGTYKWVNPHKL

[7] = molecular target: T2, Mannose-6-phosphate isomerase (Homo sapiens, UniProt P34949); test: PMI enzyme inhibitors, confirmation, biochemical, fluorescence intensity (AID 1535)
T2 sequence (P34949 whole entry): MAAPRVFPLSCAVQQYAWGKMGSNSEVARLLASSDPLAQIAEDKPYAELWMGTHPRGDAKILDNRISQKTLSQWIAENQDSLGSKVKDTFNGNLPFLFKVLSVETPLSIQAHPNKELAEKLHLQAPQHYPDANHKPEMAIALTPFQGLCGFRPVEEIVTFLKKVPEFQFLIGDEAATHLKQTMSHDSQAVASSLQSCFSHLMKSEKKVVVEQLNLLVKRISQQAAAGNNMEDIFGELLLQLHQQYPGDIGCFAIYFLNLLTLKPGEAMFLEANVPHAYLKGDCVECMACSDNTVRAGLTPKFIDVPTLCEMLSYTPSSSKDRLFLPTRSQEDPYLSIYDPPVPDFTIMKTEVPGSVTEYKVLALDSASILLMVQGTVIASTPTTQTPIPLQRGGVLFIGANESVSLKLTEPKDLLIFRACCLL

[8] = molecular target: T3, E3 ubiquitin-protein ligase XIAP (Homo sapiens, UniProt P98170); test: Counter Screen using XIAP-Bir3 for Chemical Antagonists of Bir1/2 domains of IAP-family anti-apoptotic proteins. [Related pubchem assays (depositor defined):AID1018, AID1449, AID1514, AID1638, AID1749, AID1750, AID488957, AID488963]
T3 sequence (P98170 whole entry): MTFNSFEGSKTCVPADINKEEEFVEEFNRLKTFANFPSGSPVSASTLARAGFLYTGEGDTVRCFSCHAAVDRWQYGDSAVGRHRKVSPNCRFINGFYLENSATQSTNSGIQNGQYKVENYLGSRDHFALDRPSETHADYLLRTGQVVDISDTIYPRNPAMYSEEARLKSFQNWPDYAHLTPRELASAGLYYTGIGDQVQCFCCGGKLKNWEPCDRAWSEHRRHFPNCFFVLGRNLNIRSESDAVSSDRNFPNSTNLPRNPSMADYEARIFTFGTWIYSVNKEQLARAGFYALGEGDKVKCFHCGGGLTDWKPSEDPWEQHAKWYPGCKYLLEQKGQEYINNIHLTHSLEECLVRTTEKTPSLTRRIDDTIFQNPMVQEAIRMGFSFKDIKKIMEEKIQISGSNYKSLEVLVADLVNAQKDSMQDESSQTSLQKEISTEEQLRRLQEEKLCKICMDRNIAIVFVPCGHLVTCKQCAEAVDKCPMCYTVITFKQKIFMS

[9] = molecular target: T3, E3 ubiquitin-protein ligase XIAP; test: XIAP antagonists, biochemical, IAP family, fluorescence polarization (AID 1018); format: functional
[10] = Shn3 3'UTR reporter inhibitors, dose response, cell-based, Clone20 osteoblasts, firefly luciferase, cherry-picked (AID 624132); format: functional;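 also: firefly luciferase luminescence from reporter carrying the Shn3 3'UTR in osteoblasts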
[11] = control 3'UTR Renilla luciferase suppression, dose response, counter-screen for Shn3 inhibitor project, cell-based, Clone20-Shn3RL, cherry-picked (AID 624133); format: functional
Protein Wnt-3a = Protein Wnt-3a (Mus musculus, UniProt P27467); test: Wnt3a-driven reporter signaling inhibition, dose response, selectivity assay for Gli-SUFU antagonist project, Wnt-LIGHT cells, luminescence (AID 651570); format: functional; conditions: read-out: IC50_Mean;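 also: Wnt-LIGHT reporter cells stimulated with conditioned medium from Wnt3a-producing cells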
Protein Wnt-3a, sequence (P27467 whole entry): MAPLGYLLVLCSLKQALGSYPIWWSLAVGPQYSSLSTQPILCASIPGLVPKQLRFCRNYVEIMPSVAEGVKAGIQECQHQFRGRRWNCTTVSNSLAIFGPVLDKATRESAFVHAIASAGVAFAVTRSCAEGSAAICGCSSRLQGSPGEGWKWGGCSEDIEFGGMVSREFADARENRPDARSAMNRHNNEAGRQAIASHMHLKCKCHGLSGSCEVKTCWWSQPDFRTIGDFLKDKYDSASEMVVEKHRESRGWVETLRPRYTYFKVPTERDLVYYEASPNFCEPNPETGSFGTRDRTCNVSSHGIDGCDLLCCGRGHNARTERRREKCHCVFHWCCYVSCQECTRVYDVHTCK

Cytochrome P450 2D6 = Cytochrome P450 2D6 (Homo sapiens, UniProt P10635);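 also: CYP2D6 member of a cytochrome P450 panel assay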
Cytochrome P450 2D6, sequence (P10635 whole entry): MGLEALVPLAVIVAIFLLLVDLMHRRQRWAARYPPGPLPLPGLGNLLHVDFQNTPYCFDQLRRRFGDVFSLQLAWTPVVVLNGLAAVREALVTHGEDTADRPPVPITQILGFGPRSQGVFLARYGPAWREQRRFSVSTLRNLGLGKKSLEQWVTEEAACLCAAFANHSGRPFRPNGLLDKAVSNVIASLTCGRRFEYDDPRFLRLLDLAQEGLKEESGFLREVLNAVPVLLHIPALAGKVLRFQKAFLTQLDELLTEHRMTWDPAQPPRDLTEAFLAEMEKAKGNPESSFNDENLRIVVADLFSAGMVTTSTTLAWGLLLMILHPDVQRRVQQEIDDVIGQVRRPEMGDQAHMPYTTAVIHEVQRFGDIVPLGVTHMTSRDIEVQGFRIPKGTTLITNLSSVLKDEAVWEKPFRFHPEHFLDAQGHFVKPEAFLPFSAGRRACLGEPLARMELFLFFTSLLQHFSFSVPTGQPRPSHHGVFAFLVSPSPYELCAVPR

[12] = molecular target: T4, Alkaline phosphatase, tissue-nonspecific isozyme (Homo sapiens, UniProt P05186); test: human TNAP enzyme inhibitors, SAR follow-up, biochemical, luminescent, dose response (AID 1056)
T4 sequence (P05186 whole entry): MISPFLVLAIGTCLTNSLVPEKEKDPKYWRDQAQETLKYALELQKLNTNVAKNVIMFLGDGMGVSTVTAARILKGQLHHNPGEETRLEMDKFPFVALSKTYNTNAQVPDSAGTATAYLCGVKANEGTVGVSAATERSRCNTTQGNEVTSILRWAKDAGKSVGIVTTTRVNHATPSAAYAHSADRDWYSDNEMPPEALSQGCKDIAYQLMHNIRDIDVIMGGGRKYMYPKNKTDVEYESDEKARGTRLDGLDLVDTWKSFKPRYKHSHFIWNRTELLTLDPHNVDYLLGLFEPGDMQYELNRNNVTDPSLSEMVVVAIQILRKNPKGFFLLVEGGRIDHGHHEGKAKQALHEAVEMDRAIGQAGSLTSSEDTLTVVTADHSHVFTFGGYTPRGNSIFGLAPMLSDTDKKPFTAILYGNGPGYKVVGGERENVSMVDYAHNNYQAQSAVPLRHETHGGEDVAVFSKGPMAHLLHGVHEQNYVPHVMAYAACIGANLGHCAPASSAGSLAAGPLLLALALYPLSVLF

[13] = molecular target: T5, DNA repair and recombination protein RAD54-like (Homo sapiens, UniProt Q92698); test: inhibitors of human RAD54 branch migration, confirmation, biochemical, fluorescence, cherry-picked samples, dose series (AID 651657); format: functional
T5 sequence (Q92698 whole entry): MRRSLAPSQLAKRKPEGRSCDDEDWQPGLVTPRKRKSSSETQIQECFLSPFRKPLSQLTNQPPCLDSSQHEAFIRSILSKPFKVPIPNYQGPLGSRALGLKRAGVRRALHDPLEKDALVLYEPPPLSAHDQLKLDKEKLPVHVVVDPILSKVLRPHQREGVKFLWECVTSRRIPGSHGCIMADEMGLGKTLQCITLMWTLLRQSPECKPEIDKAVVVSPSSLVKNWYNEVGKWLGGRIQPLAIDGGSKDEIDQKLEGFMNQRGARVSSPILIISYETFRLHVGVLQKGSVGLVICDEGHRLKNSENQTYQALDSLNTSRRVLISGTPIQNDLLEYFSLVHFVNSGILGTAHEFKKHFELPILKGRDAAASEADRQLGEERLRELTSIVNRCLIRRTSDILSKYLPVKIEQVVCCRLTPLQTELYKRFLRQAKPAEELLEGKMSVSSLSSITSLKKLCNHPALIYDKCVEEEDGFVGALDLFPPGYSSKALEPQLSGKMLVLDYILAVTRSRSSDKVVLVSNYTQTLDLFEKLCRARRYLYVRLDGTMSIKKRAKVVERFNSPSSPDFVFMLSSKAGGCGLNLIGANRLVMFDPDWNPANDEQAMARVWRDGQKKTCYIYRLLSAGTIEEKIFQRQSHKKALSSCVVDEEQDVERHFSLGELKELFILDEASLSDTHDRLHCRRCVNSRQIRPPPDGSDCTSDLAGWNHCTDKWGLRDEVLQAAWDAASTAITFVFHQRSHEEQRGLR

[14] = insulin promoter down-regulators in MIN6 cells, imaging, high-content screening, mouse beta cells (AID 1628); format: functional
[15] = cytotoxicity in MIN6 insulinoma cells, dose response, cytotoxicity control, cell-based, mouse insulinoma (AID 2122); format: functional;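 also: confirmatory high-throughput counterscreen run to flag cytotoxic compounds; mouse MIN-6 beta cells carrying an insulin promoter eGFP reporter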
HEK293 = test: inhibitors of LMP1-driven NF-kB reporter, dose response, cell-based, HEK293, luciferase, cherry-pick (AID 588343); format: functional; conditions: Homo sapiens
[16] = microbe, parasite or virus in culture; format: functional; conditions: Mycobacterium tuberculosis
Cytochrome P450 3A4 = Cytochrome P450 3A4 (Homo sapiens, UniProt P08684);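 also: CYP3A4 tested as one member of a cytochrome P450 panel screen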
Cytochrome P450 3A4, sequence (P08684 whole entry): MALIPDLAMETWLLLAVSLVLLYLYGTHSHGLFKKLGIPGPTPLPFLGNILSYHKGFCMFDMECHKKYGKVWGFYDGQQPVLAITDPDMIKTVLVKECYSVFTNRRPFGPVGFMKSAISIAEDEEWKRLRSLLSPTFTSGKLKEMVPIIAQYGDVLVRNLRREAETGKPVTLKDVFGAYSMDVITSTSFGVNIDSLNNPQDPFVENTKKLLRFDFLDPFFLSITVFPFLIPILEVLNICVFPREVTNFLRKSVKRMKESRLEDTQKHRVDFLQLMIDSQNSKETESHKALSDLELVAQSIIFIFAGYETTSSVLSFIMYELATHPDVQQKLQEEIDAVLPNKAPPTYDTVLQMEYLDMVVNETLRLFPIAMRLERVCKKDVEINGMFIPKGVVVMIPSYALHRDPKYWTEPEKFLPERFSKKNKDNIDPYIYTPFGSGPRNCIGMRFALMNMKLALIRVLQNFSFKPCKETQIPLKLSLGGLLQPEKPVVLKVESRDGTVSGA

INS1 = test: beta cell apoptosis inhibitors, cytokine rescue, dose response, luminescence, retest (AID 449756); format: functional, cell-based; conditions: Rattus norvegicus;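 also: cell death triggered by IL-1 beta plus TNF-alpha plus IFN-gamma mixture; protective hits raise ATP signal compared with cytokine alone wells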
[17] = inhibitors of intracellular T. cruzi replication, confirmation, NIH3T3 host cells, beta-gal luminescence (AID 2044); format: functional, cell-based;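 also: intracellular parasites grown in NIH/3T3 mouse fibroblasts as host cells; luminescent beta-galactosidase reporter signal from transgenic T. cruzi replicating inside host cells; inhibitors lower the luminescence signal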
[18] = cytotoxicity toward NIH3T3 fibroblasts, dose response, counter-screen, cell-based, ATP luminescence, mouse fibroblasts (AID 2010); format: functional;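 also: cells exposed to compound for about 90 hours before reading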

DNA dC->dU-editing enzyme APOBEC-3G, sequence (Q9HC16 whole entry): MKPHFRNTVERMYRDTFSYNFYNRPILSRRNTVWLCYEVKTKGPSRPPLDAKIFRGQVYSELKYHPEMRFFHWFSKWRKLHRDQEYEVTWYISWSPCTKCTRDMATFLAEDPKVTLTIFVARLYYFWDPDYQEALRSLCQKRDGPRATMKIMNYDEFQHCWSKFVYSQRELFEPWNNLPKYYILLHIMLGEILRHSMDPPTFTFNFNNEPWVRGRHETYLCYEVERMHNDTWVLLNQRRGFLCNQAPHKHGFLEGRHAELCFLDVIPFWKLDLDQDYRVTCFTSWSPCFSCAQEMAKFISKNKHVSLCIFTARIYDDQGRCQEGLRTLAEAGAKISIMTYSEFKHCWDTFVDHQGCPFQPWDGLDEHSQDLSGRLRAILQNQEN

Compound: CCCCN1CCc2cc(/C=C3\C(=O)NC(=S)N(C4CC4)C3=O)ccc21
- IC50 [1]: 68.2 µM (inactive)
- IC50 [2]: 57.1 µM (inactive)

Compound: COc1ccc2c(c1)CCc1c[nH]nc1-2
- AC50 [3]: > 120 µM (inactive)

Compound: Cc1n[nH]c(NC(=O)/C=C/c2ccccc2)n1
- EC50 [4]: 1.09 µM (active)
- AC50 [5]: 17.8 µM (active)

Compound: C[C@H](NC(=O)c1cc2c3ccccc3nc-2c[nH]1)C(=O)O
- IC50 [6]: > 80 µM (inactive)

Compound: Clc1ncccc1/N=c1\ssnc1Cl
- IC50 [7]: 9.88 µM (active)

Compound: NCCc1cc(O)c(O)cc1O
- IC50 [6]: > 80 µM (inactive)

Compound: COc1ccc(-c2nnc(SCC(=O)N(C)Cc3cccs3)[nH]2)cc1
- IC50 [1]: > 99 µM (inactive)
- IC50 [2]: > 99 µM (inactive)

Compound: O=C1C(/C=N/Cc2ccncc2)=C(O)c2ccccc21
- AC50 [3]: 7.11 µM (active)

Compound: COc1cc(/C=N/Nc2cc(C)nc(NS(=O)(=O)c3ccc(C)cc3)n2)ccc1O
- IC50 [8]: > 100 µM (inactive)
- IC50 [9]: > 100 µM (not active)

Compound: CC(C)=CCC/C(C)=C/CNC(=O)C[C@H]1C[C@H](C(=O)N2CCOCC2)[C@@]2(C)c3[nH]c4cc(CCC(=O)N(C)C)ccc4c3CCN2C1=O
- AC50 [10]: 1.11 µM (active)
- AC50 [11]: 1.33 µM (active)
- IC50 (Protein Wnt-3a): 23.6 µM (inactive)

Compound: O=C1CN(/N=C\c2ccc(-c3ccc([N+](=O)[O-])cc3)o2)C([O-])=N1.[Na+]
- AC50 (Cytochrome P450 2D6): inactive

Compound: O=C(c1ccc(C(F)(F)F)cc1)C1CCCN(Cc2ccncc2)C1 (stereo not drawn)
- IC50 (Protein Wnt-3a): 5.15 µM (active)

Compound: CCn1c(=O)cc(OCC(=O)NCCC(C)C)c2ccccc21
- IC50 [8]: > 100 µM (inactive)
- IC50 [9]: > 100 µM (not active)

Compound: Cc1cc(C)nc(NCc2ccc(O)c(O)c2)n1
- IC50 [12]: 27 µM (active)

Compound: Cc1ccc(-c2nc(NCCCO)c3ccccc3n2)cc1
- AC50 [13]: 79.6 µM (active)

Compound: Cc1cc(O)nc(N=N/C(=N/Nc2ccccc2C)c2ccccc2)n1
- IC50 [14]: 1.46 µM (active)
- IC50 [15]: 1.36 µM (active)
- AC50 (HEK293): 4.66 µM (active)

Compound: CCC12CN3CCN(CC(C3)C1O)C2 (stereo not drawn)
- IC50 [8]: > 100 µM (inactive)
- IC50 [9]: > 100 µM (not active)

Compound: Cc1ccc(C(=O)O/N=C\c2ccc(N3CCCCC3)c([N+](=O)[O-])c2)cc1
- CC50 [16]: > 40 µM (active)
- AC50 (Cytochrome P450 3A4): 22.4 µM (inconclusive)
- AC50 (Cytochrome P450 2D6): inconclusive

Compound: N=c1oc2cc(O)ccc2cc1C(=O)Nc1ccc(F)cc1
- AC50 [3]: 14.5 µM (active)

Compound: CCCCCCCn1c(=N)n(CC(O)c2ccco2)c2ccccc21 (stereo not drawn)
- IC50 [14]: 1.79 µM (active)
- IC50 [15]: 3.55 µM (active)

Compound: Cc1ccc(CN(C)C(=O)CSc2nnc(-c3ccc(F)cc3)n2C)o1
- IC50 [1]: > 99 µM (inactive)
- IC50 [2]: > 99 µM (inactive)

Compound: Cc1ccc(-c2nc(NC(=O)CSc3ccc4ccccc4n3)ns2)cc1
- IC50 [8]: > 100 µM (inactive)
- IC50 [9]: > 100 µM (not active)

Compound: O=[N+]([O-])c1ccc(/C=N/Nc2ccnc3cc(Cl)ccc23)o1
- AC50 [5]: 15.3 µM (active)
- AC50 (INS1): 9.06 µM (active)

Compound: O=C(Nc1nc2ccc([N+](=O)[O-])cc2s1)c1ccc(S(=O)(=O)N2CCCc3ccccc32)cc1
- IC50 [14]: 2.16 µM (active)
- IC50 [15]: 1.46 µM (active)
- EC50 [17]: 2.01 µM (active)
- EC50 [18]: > 30 µM (not active)
- AC50 (INS1): 3.34 µM (active)

Compound: CO[C@@H]1COC(=O)CCC[C@@H](C)[C@H](OC)COC(=O)CCC[C@H]1C
- AC50 (Cytochrome P450 2D6): inconclusive

Compound: O=C(N[C@@H]1C/C=C\C[C@@H](CC(=O)N(CCO)Cc2ccccc2)C(=O)NC[C@H](c2ccccc2)OC1=O)OCC1c2ccccc2-c2ccccc21
- AC50 [10]: 7.04 µM (active)
- AC50 [11]: 4.32 µM (active)
- IC50 (Protein Wnt-3a): 8.93 µM (active)
